Reference: the supplement of paper PMC10307832

Columns and labels:
Assay in all cases: relative viability (nuclei count vs DMSO), 5 days (fraction); higher = more cells survive
Linsitinib + Palbociclib = compound: C[C@]1(O)C[C@@H](c2nc(-c3ccc4ccc(-c5ccccc5)nc4c3)c3c(N)nccn32)C1 [Linsitinib] + CC(=O)c1c(C)c2cnc(Nc3ccc(N4CCNCC4)cn3)nc2n(C2CCCC2)c1=O [Palbociclib] (partner 0.5 µM)
Outline: (§1)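 Relative viability divides the nuclei count in treated wells by that in vehicle wells. Lung cancer cell lines were seeded in 1536-well plates, dosed by pin tool the next day, and fixed and stained after 5 days in one step with final 0.05% Triton X-100, 1% formaldehyde and 1 ug/ml Hoechst. Dosing was a single drug or a fixed anchor-drug dose plus five library-drug doses (not always all listed) in √10 steps, and values are medians of duplicate plates imaged at 4×.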

Ispinesib + Foretinib = compound: Cc1ccc(C(=O)N(CCCN)[C@@H](c2nc3cc(Cl)ccc3c(=O)n2Cc2ccccc2)C(C)C)cc1 [Ispinesib] + COc1cc2c(Oc3ccc(NC(=O)C4(C(=O)Nc5ccc(F)cc5)CC4)cc3F)ccnc2cc1OCCCN1CCOCC1 [Foretinib] (partner 0.25 µM)
Outline: as §1

Ispinesib + Luminespib = compound: Cc1ccc(C(=O)N(CCCN)[C@@H](c2nc3cc(Cl)ccc3c(=O)n2Cc2ccccc2)C(C)C)cc1 [Ispinesib] + CCNC(=O)c1noc(-c2cc(C(C)C)c(O)cc2O)c1-c1ccc(CN2CCOCC2)cc1 [Luminespib] (partner 0.01 µM)
Outline: as §1

Ispinesib + Decitabine = compound: Cc1ccc(C(=O)N(CCCN)[C@@H](c2nc3cc(Cl)ccc3c(=O)n2Cc2ccccc2)C(C)C)cc1 [Ispinesib] + Nc1ncn([C@H]2C[C@H](O)[C@@H](CO)O2)c(=O)n1 [Decitabine] (partner 2 µM)
Outline: as §1

Row | Cell Line | relative viability (Linsitinib + Palbociclib; first compound 0.01 µM) | relative viability (Linsitinib + Palbociclib; first compound 0.03162 µM) | relative viability (Linsitinib + Palbociclib; first compound 0.1 µM) | relative viability (Linsitinib + Palbociclib; first compound 0.3162 µM) | relative viability (Linsitinib + Palbociclib; first compound 1 µM) | relative viability (Ispinesib + Foretinib; first compound 0.001 µM) | relative viability (Ispinesib + Foretinib; first compound 0.003162 µM) | relative viability (Ispinesib + Foretinib; first compound 0.01 µM) | relative viability (Ispinesib + Foretinib; first compound 0.03162 µM) | relative viability (Ispinesib + Foretinib; first compound 0.1 µM) | relative viability (Ispinesib + Luminespib; first compound 0.001 µM) | relative viability (Ispinesib + Luminespib; first compound 0.003162 µM) | relative viability (Ispinesib + Luminespib; first compound 0.01 µM) | relative viability (Ispinesib + Luminespib; first compound 0.03162 µM) | relative viability (Ispinesib + Luminespib; first compound 0.1 µM) | relative viability (Ispinesib + Decitabine; first compound 0.001 µM) | relative viability (Ispinesib + Decitabine; first compound 0.003162 µM) | relative viability (Ispinesib + Decitabine; first compound 0.01 µM) | relative viability (Ispinesib + Decitabine; first compound 0.03162 µM) | relative viability (Ispinesib + Decitabine; first compound 0.1 µM)
1 | 201T | 0.357 | 0.371 | 0.374 | 0.364 | 0.374 | 1.26 | 1.24 | 1.08 | 0.962 | 0.214 | 1.07 | 1.05 | 1.15 | 0.988 | 0.937 | 0.849 | 0.859 | 0.897 | 0.889 | 0.839
2 | A549 |  |  |  |  |  | 1.13 | 1.19 | 1.2 | 0.757 | 0.0545 |  |  |  |  |  | 0.149 | 0.254 | 0.326 | 0.315 | 0.196
3 | A-427 | 0.516 | 0.568 | 0.535 |  | 0.494 | 1.06 | 1.22 | 1.16 | 1.07 | 0.762 | 1 | 1.11 | 1.33 | 0.352 | 0.389 | 0.578 | 0.539 | 0.587 | 0.395 | 0.3
4 | ABC-1 | 0.793 | 0.537 | 0.627 | 0.428 | 0.425 | 1.37 | 1.35 | 1.11 | 0.507 | 0.382 |  | 0.598 | 0.613 | 0.369 | 0.469 | 0.997 | 1.12 | 1.35 |  | 0.509
5 | BEN | 0.487 | 0.422 | 0.45 | 0.361 | 0.468 | 0.674 | 0.96 | 0.686 | 0.342 | 0.201 | 0.617 | 0.576 | 0.237 | 0.247 | 0.234 | 0.714 | 0.737 | 0.785 | 0.421 | 0.375
6 | CAL-12T | 0.429 | 0.388 | 0.412 | 0.321 | 0.424 | 1.2 | 1.06 | 1.31 | 0.938 | 0.197 | 0.318 | 0.394 | 0.688 | 0.379 | 0.236 |  |  |  |  | 
7 | COR-L23 | 0.278 | 0.3 | 0.249 | 0.198 | 0.226 | 0.959 | 1.03 | 1.16 | 0.412 | 0.146 | 0.805 | 0.815 | 0.824 | 0.356 | 0.215 | 0.447 | 0.388 | 0.454 | 0.176 | 0.141
8 | COR-L 105 | 0.38 | 0.403 | 0.437 | 0.373 | 0.358 | 1.46 | 1.01 | 1.03 | 0.468 | 0.345 | 0.737 | 0.666 | 0.808 | 0.349 | 0.439 | 0.595 | 0.662 | 0.67 | 0.43 | 0.337
9 | Calu-6 |  |  |  |  |  | 0.981 | 0.887 | 0.854 | 0.39 | 0.125 |  |  |  |  |  |  |  |  |  | 
10 | ChaGo-K-1 | 0.926 | 0.897 | 0.974 |  | 0.978 | 0.909 | 0.867 | 0.993 | 0.926 | 0.629 | 0.727 | 0.712 | 0.82 | 0.639 | 0.492 | 0.463 | 0.56 | 0.494 | 0.574 | 0.521
11 | EBC-1 |  |  |  |  |  | 0.111 | 0.101 | 0.109 | 0.0927 | 0.0893 |  |  |  |  |  |  |  |  |  | 
12 | EKVX |  | 0.408 | 0.39 | 0.288 | 0.316 | 0.897 | 0.85 | 1.05 | 0.604 | 0.275 | 0.837 | 0.875 | 0.937 | 0.829 | 0.563 | 0.366 |  | 0.337 | 0.284 | 0.218
13 | EMC-BAC-2 | 0.512 | 0.509 | 0.493 | 0.478 | 0.425 | 1.03 | 0.621 | 0.997 | 0.818 | 0.39 | 0.797 | 1.32 | 1.36 | 1.13 | 0.6 | 0.933 | 1.13 | 1.04 | 0.775 | 0.47
14 | EPLC-272H | 0.337 | 0.351 | 0.327 |  | 0.335 | 0.793 | 0.657 | 0.659 | 0.322 | 0.23 | 0.215 | 0.326 | 0.25 | 0.196 | 0.234 | 0.395 | 0.355 | 0.377 | 0.322 | 0.25
15 | H3255 | 0.309 | 0.341 | 0.313 | 0.321 | 0.299 | 0.932 | 0.869 | 0.995 | 0.508 | 0.158 | 0.898 | 1.1 | 0.859 | 0.557 | 0.29 | 0.573 | 0.629 | 0.622 | 0.495 | 0.41
16 | HARA | 0.276 | 0.274 | 0.223 | 0.203 | 0.268 | 1.18 | 0.931 | 0.976 | 1.04 | 0.132 | 1.12 | 0.617 | 0.788 | 0.64 | 0.233 | 0.514 | 0.467 | 0.573 | 0.709 | 0.314
17 | HCC-15 | 0.75 | 0.703 | 0.702 | 0.283 | 0.569 | 1.1 | 1.02 | 1.1 | 0.561 | 0.188 | 0.286 | 0.322 | 0.459 | 0.229 | 0.227 | 0.706 | 0.768 | 0.752 | 0.418 | 0.225
18 | HCC-44 | 0.962 | 0.928 | 0.879 | 0.785 | 0.825 |  |  |  |  |  | 1.25 | 1.07 | 1.02 | 1.1 | 0.555 | 0.909 | 0.954 | 0.967 | 0.795 | 0.453
19 | HCC-78 | 0.45 | 0.539 | 0.458 | 0.525 | 0.501 | 0.558 | 0.567 | 0.542 | 0.525 | 0.559 |  |  |  |  |  | 0.68 | 0.732 | 0.825 | 0.577 | 0.578
